Article PMC12446468, “Anti-inflammatory and cytotoxic assessment of flavonoids isolated from Viola odorata flowers with computer-guided docking study” (Scientific Reports, 2025)
Converted amounts (≈) assume the structure as drawn.

Assays:
[1] = MTT cytotoxicity assay, HepG2; assay type: cell-based, human; details: human, HepG2 cells (hepatocellular carcinoma), 48 h
Experimental: (§1) The assessment of cytotoxicity for the methanolic extract and isolated flavonoids was performed under controlled and sterile conditions within a Class II A2 Laminar flow biosafety cabinet. The carcinoma cell lines used in this study was obtained from Nawah Scientific Inc. (Cairo, Egypt). The cells were cultured in Dulbecco’s Modified Eagle’s Medium, enriched with 10% heat-inactivated fetal bovine serum, 100 U/ml penicillin, and 100 μg/ml streptomycin sulfate, maintained at […] in humidified incubators with 5% CO2. Upon reaching approximately 80% confluence, the cells were subcultured using a trypsin–EDTA solution. Harvesting occurred during the logarithmic growth phase. The methanolic extract and isolated flavonoids were dissolved in DMSO and stored at − 20 °C. For each experimental trial, the stock solutions were mixed with the culture medium to obtain the required final concentrations.
(§2) The effectiveness of the extract was compared to that of the reference drug, Doxorubicin. The percentage of cell viability was calculated by taking the ratio of the absorbance of the plant extract to that of the control, multiplied by 100. Furthermore, the IC50 value of the plant extract was determined using Sigma Plot software version 11 (Spw.exe) (https://sigmaplot.software.informer.com/11.0/).

[2] = system: hepatocellular carcinoma (HepG2); experiment: MTT cytotoxicity assay, HepG2; assay type: cell-based, human; details: Homo sapiens, HepG2, 48 h, read-out: IC50
Experimental: as §1, §2

[3] = MTT cytotoxicity assay, Caco-2; assay type: cell-based, human; details: human, Caco-2 cells (human colonic epithelial cells), 48 h
Experimental: as §1, §2

[4] = system: human colonic epithelial cells (Caco-2); experiment: MTT cytotoxicity assay, Caco-2; assay type: cell-based; details: Homo sapiens, Caco-2, 48 h, read-out: IC50
Experimental: as §1, §2

[5] = MTT cytotoxicity assay, HTC-116; assay type: cell-based, human; details: human, HTC-116 cells (human colorectal carcinoma), 48 h
Experimental: as §1, §2

[6] = system: human colorectal carcinoma cells (HTC-116); experiment: MTT cytotoxicity assay, HTC-116; assay type: cell-based; details: Homo sapiens, HTC-116, 48 h, read-out: IC50
Experimental: as §1, §2

COc1cccc2c1C(=O)c1c(O)c3c(c(O)c1C2=O)C[C@@](O)(C(=O)CO)C[C@@H]3O[C@H]1C[C@H](N)[C@H](O)[C@H](C)O1 [Doxorubicin, reference compound]
cytotoxicity at 48 h, 6.25 µg/ml ([1]; HepG2, 6.25 ug/ml): 31.8% | viability at 48 h, 6.25 µg/ml ([1]; HepG2, 6.25 ug/ml, read-out: % Cell viability): 68.2% | cytotoxicity at 48 h, 12.5 µg/ml ([1]; HepG2, 12.5 ug/ml): 37.7% | viability at 48 h, 12.5 µg/ml ([1]; HepG2, 12.5 ug/ml, read-out: % Cell viability): 62.3% | cytotoxicity at 48 h, 25 µg/ml ([1]; HepG2, 25 ug/ml): 60.1% | viability at 48 h, 25 µg/ml ([1]; HepG2, 25 ug/ml, read-out: % Cell viability): 39.9% | cytotoxicity at 48 h, 50 µg/ml ([1]; HepG2, 50 ug/ml): 76% | viability at 48 h, 50 µg/ml ([1]; HepG2, 50 ug/ml, read-out: % Cell viability): 24% | cytotoxicity at 48 h, 100 µg/ml ([1]; HepG2, 100 ug/ml): 92% | viability at 48 h, 100 µg/ml ([1]; HepG2, 100 ug/ml, read-out: % Cell viability): 7.95% | IC50 [2]: 23.6 µg/mL (≈ 43.3 µM) | cytotoxicity at 48 h, 6.25 µg/ml ([3]; Caco-2, 6.25 ug/ml): 28.1% | viability at 48 h, 6.25 µg/ml ([3]; Caco-2, 6.25 ug/ml, read-out: % Cell viability): 71.9% | cytotoxicity at 48 h, 12.5 µg/ml ([3]; Caco-2, 12.5 ug/ml): 41.6% | viability at 48 h, 12.5 µg/ml ([3]; Caco-2, 12.5 ug/ml, read-out: % Cell viability): 58.4% | cytotoxicity at 48 h, 25 µg/ml ([3]; Caco-2, 25 ug/ml): 53.9% | viability at 48 h, 25 µg/ml ([3]; Caco-2, 25 ug/ml, read-out: % Cell viability): 46.1% | cytotoxicity at 48 h, 50 µg/ml ([3]; Caco-2, 50 ug/ml): 71.2% | viability at 48 h, 50 µg/ml ([3]; Caco-2, 50 ug/ml, read-out: % Cell viability): 28.8% | cytotoxicity at 48 h, 100 µg/ml ([3]; Caco-2, 100 ug/ml): 92.1% | viability at 48 h, 100 µg/ml ([3]; Caco-2, 100 ug/ml, read-out: % Cell viability): 7.87% | IC50 [4]: 27.1 µg/mL (≈ 49.9 µM) | cytotoxicity at 48 h, 6.25 µg/ml ([5]; HTC-116, 6.25 ug/ml): 31% | viability at 48 h, 6.25 µg/ml ([5]; HTC-116, 6.25 ug/ml, read-out: % Cell viability): 69% | cytotoxicity at 48 h, 12.5 µg/ml ([5]; HTC-116, 12.5 ug/ml): 43.1% | viability at 48 h, 12.5 µg/ml ([5]; HTC-116, 12.5 ug/ml, read-out: % Cell viability): 56.9% | cytotoxicity at 48 h, 25 µg/ml ([5]; HTC-116, 25 ug/ml): 53.8% | viability at 48 h, 25 µg/ml ([5]; HTC-116, 25 ug/ml, read-out: % Cell viability): 46.2% | cytotoxicity at 48 h, 50 µg/ml ([5]; HTC-116, 50 ug/ml): 70% | viability at 48 h, 50 µg/ml ([5]; HTC-116, 50 ug/ml, read-out: % Cell viability): 30% | cytotoxicity at 48 h, 100 µg/ml ([5]; HTC-116, 100 ug/ml): 91.2% | viability at 48 h, 100 µg/ml ([5]; HTC-116, 100 ug/ml, read-out: % Cell viability): 8.77% | IC50 [6]: 25.7 µg/mL (≈ 47.3 µM)
